Measured values taken from patent US6590107B1, “Synthesis, anti-human immunodeficiency virus, and anti-hepatitis B virus activities of 1,3-oxaselenolane nucleosides” (Emory University, priority 1997, dated 2003).
Read-outs that look alike come from different tables or passages of the source.

What was measured:
HIV-1 (strain LAV) = type: cell-based
Protocol: The ability of nucleosides to inhibit HIV can be measured by various experimental techniques. The technique used herein, and described in detail below, measures the inhibition of viral replication in phytohemaggluinin (PHA) stimulated human peripheral blood mononuclear (PBM) cells infected with HIV-1 (strain LAV). The amount of virus produced is determined by measuring the virus-coded reverse transcriptase enzyme. The amount of enzyme produced is proportional to the amount of virus produced.
Three-day old phytohemagglutinin-stimulated PBM cells (10^6 cells/ml) from hepatitis B and HIV-1 seronegative healthy donors were infected with HIV-1 (strain LAV) at a concentration of about 100 times the 50% tissue culture infections dose (TICD 50) per ml and cultured in the presence and absence of various concentrations of antiviral compounds.
Approximately one hour after infection, the medium, with the compound to be tested (2 times the final concentration in medium) or without compound, was added to the flasks (5 ml; final volume 10 ml). AZT was used as a positive control.
The cells were exposed to the virus (about 2×10^5 dpm/ml, as determined by reverse transcriptase assay) and then placed in a CO2 incubator. HIV-1 (strain LAV) was obtained from the Center for Disease Control, Atlanta, Ga. The methods used for culturing the PBM cells, harvesting the virus and determining the reverse transcriptase activity were those described by McDougal, et al. (J. Immun. Meth. 76, 171-183, 1985) and Spira, et al. (J. Clin. Meth. 25, 97-99, 1987), except that fungizone was not included in the medium (see Schinazi, et al., Antimicrob. Agents Chemother. 32, 1784-1787 (1988); Id., 34:1061-1067 (1990)).
On day 6, the cells and supernatant were tnansferred to a 15 ml tube and centrifuged at about 900 g for 10 minutes. Five ml of supernatant was removed and the virus was concentrated by centrifugation at 40,000 rpm for 30 minutes (Beckman 70.1 Ti rotor). The solubilized virus pellet was processed for determination of the levels of reverse transcriptase. Results are expressed in dpm/ml of sampled supernatant. Virus from smaller volumes of supernatant (1 ml) can also be concentrated by centriguation prior to solubilization and determination of reverse transcriptase levels.
The median effective (EC50) concentration was determined by the median effect-method (Antimicrob. Agents Chemother. 30, 491-498 (1986)). Briefly, the percent inhibition of virus, as determined from measurements of reverse transcriptase, is plotted versus the micromolar concentration of compound.

[1] = system: uninfected human PBM cells; experiment: Toxicity: growth of mitogen-stimulated uninfected human PBM cells; type: cell-based
Protocol: Mitogen stimulated uninfected human PBM cells (3.8×10^5 cells/ml) were cultured in the presence and absence of drug under similar conditions as those used for the antiviral assay described above. The cells were counted after 6 days using a hemacytometer and the trypan blue exclusion method, as described by Schinazi, et al., (Antimicrobial Agents and Chemotherapy, 22(3), 499 (1982)).

[2] = system: Cloned M184 HIV-1 (M184V); experiment: Anti-HIV activity in PBM cells infected with cloned M184V HIV-1 (mutation at codon 184 of reverse transcriptase gene); type: cell-based; conditions: for activity against the mutated virus: HIV with mutation at codon 184 in reverse transcriptase gene; for activity against the mutated virus / EC50 / EC90: PBM cells; for FI EC50 (fold increase): EC50 data from cloned virus/EC50 data from xxBRU; for FI EC90 (fold increase): EC90 M184V versus xxBRU; for EC50 / EC90: Virus M184V
xxBRU HIV-1 = experiment: Anti-HIV activity in PBM cells, virus xxBRU; type: cell-based
HIV = conditions: comparison with AZT; cited from earlier work
CEM cells = experiment: Toxicity in CEM cells; type: cell-based, human
Description: Some of the 1,3-oxaselenolanyl nucleosides described herein can be used to treat abnormal cellular proliferation, including tumors and cancer. The extent of antiproliferative activity can be easily assessed by assaying the compound according to the procedure below in a CEM cell or other tumor or proliferative cell line assay. CEM cells are human lymphoma cells (a T-lymphoblastoid cell line that can be obtained from ATCC, Rockville, Md.). The toxicity of a compound to CEM cells provides useful information regarding the activity of the compound against tumors. The toxicity is measured as IC50 micromolar).
Drug solutions, including cycloheximide as a positive control, are plated in triplicate in 50 μl growth medium at 2 times the final concentration and allowed to equilibrate at 37° C. in a 5% CO2 incubator. […] Absorbance is read at 570 nm, blanking on the medium-only wells using a Biotek Biokinetics plate read (Biotek, Winooski, Vt.). Average percent inhibition of growth compared to the untreated control is calculated. IC50, IC90, slope and r value are calculated by the method of Chou and Talaly. Chou T-C, Talalay P. Quantitative analysis of dose-effect relationships: The combined effects of multiple drugs or enzyme inhibitors. […]

Vero cells = experiment: Toxicity in Vero cells; type: cell-based
[3] = Table 5, anti-HIV activity in PBM cells
[4] = Table 5, anti-HIV activity in PBM cells, read-out: EC50
[5] = Table 5, cytotoxicity in PBM cells, read-out: IC50 PBM
[6] = PBM cells, HIV-1 strain LAV, estimated 10% error factor, read-out: Anti-HIV Activity in PBM Cells (EC50 μM)
[7] = mitogen-stimulated uninfected human PBM cells, read-out: Toxicity (IC50 μM) PMB

SMILES: Nc1ccn([C@H]2C[Se][C@@H](CO)O2)c(=O)n1 [(−)-β-Se-ddC, (−)-(2S,5R)-β-L-2′,3′-dideoxy-3′-seleno-cytidine]
- EC90 (HIV-1 (strain LAV); [3]): 5.42 µM
- EC50 (HIV-1 (strain LAV); [4]): 0.88 µM
- IC50 [1, 5]: > 100 µM
- activity against the mutated virus [2]: significant activity
- EC50 (xxBRU HIV-1): 0.11 µM
- EC90 (xxBRU HIV-1): 0.95 µM

SMILES: Nc1ccn(C2C[Se]C(CO)O2)c(=O)n1 (racemic) [(±)-β-Se-ddC]
- EC90 (HIV-1 (strain LAV); [3]): 209 µM
- EC50 (HIV-1 (strain LAV); [4]): 2.69 µM
- IC50 [1, 5]: > 100 µM
- activity against the mutated virus [2]: significant activity
- EC50 (xxBRU HIV-1): 1.84 µM
- EC90 (xxBRU HIV-1): 6.9 µM

SMILES: Nc1ccn(C2CSC(CO)O2)c(=O)n1 (racemic) [BCH-189, 2-hydroxymethyl-5-(cytosin-1-yl)-1,3-oxathiolane]
- activity against HIV relative to AZT (HIV): approximately the same activity against HIV as AZT

SMILES: Nc1ccn([C@@H]2C[Se][C@H](CO)O2)c(=O)n1 [(+)-β-Se-ddC, (+)-(2R,5S)-β-D-2′,3′-dideoxy-3′-seleno-cytidine]
- EC90 (HIV-1 (strain LAV); [3]): 677 µM
- EC50 (HIV-1 (strain LAV); [4]): 3.39 µM
- IC50 [1, 5]: > 100 µM
- EC50 (xxBRU HIV-1): 8.62 µM
- EC90 (xxBRU HIV-1): 35.1 µM

SMILES: Nc1nc(=O)n(C2C[Se]C(CO)O2)cc1F [(+)-β-Se-FddC, 1-β-D-(2′-hydroxymethyl-1′,3′-oxaselenolane-5′-yl)-5-fluorocytosine]
- EC90 (HIV-1 (strain LAV); [3]): 164 µM
- EC50 (HIV-1 (strain LAV); [4]): 41.9 µM
- IC50 [1, 5]: > 100 µM
- FI EC50 (fold increase) [2]: >6
- FI EC90 (fold increase) [2]: >1
- EC50 [2]: > 50 µM
- EC90 [2]: > 50 µM

SMILES: Nc1nc(=O)n(C2C[Se]C(CO)O2)cc1F (racemic) [(±)-β-Se-FddC, 2-hydroxymethyl-4-(N-5′-flurocytosin-1′-yl)-1,3-oxaselenolane]
- EC90 (HIV-1 (strain LAV); [3]): 16.4 µM
- EC50 (HIV-1 (strain LAV); [4]): 5.55 µM
- IC50 [1, 5]: > 100 µM
- FI EC50 (fold increase) [2]: 59
- FI EC90 (fold increase) [2]: 49
- EC50 [2]: 108 µM
- EC90 [2]: 337 µM

SMILES: Nc1nc(=O)n(C2C[Se]C(CO)O2)cc1F [(−)-β-Se-FddC, 1-β-L-(2′-Hydroxymethyl-1′,3′-oxaselenolane-5′-yl)-5-fluorocytosine]
- EC90 (HIV-1 (strain LAV); [3]): 1.05 µM
- EC50 (HIV-1 (strain LAV); [4]): 0.21 µM
- IC50 [1, 5]: > 100 µM
- FI EC50 (fold increase) [2]: >455
- FI EC90 (fold increase) [2]: >53
- EC50 [2]: > 50 µM
- EC90 [2]: > 50 µM

SMILES: Nc1ccn(C2C[Se]C(CO)O2)c(=O)n1 (centres unmarked)
- EC50 (HIV-1 (strain LAV); [6]): 0.88 µM
- IC50 [1, 7]: > 100 µM
- IC50 (CEM cells): > 100 µM
- IC50 (Vero cells): > 100 µM

SMILES: Nc1nc(=O)n(C2C[Se]C(CO)O2)cc1F (centres unmarked) [Compound 5-F-Cytosine]
- EC50 (HIV-1 (strain LAV); [6]): 0.07 µM
- IC50 [1, 7]: > 100 µM
- IC50 (CEM cells): > 100 µM
- IC50 (Vero cells): > 100 µM
